pEC50: −log10 of the molar value.
Target: T1, mutant form of the human GPR119 receptor (Homo sapiens, UniProt Q8TDV5, S329A/T327A)
T1 construct: expressed in transfected cells
T1 sequence (Q8TDV5 with tags, fused parts or gaps T327A/S329A): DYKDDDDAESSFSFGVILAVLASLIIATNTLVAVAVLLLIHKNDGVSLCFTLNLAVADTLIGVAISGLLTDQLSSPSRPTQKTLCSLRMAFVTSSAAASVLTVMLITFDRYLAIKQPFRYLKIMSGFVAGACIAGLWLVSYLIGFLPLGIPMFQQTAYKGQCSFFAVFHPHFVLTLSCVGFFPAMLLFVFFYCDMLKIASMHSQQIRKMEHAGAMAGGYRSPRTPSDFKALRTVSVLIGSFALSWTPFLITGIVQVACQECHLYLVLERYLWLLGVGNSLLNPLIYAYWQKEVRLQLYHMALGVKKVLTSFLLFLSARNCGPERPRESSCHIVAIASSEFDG
Assay: LANCE cAMP-384 assay in HEK293 cells stably expressing a mutant form of the human GPR119 receptor
Format: cell-based
Details: cAMP accumulation, GPR119 stable HEK293 cells, LANCE kit, 20 min at 37° C.
Procedure: Quantitative detection of cAMP accumulation from cells expressing human GPR119 receptor is achieved using Perkin Elmer's LANCE cAMP-384 Kit (Cat#AD0264) according to the manufacturer's protocol. Briefly, HEK293 cells stably expressing a mutant form of the human GPR119 receptor as assay tool (Methionine 1 replaced with the amino acid sequence […], and T327 & S329 changed to alanines; SEQ ID No. 1) are grown to 50-70% confluency in cell culture media (DMEM, 10% heat inactivated Fetal Bovine Serum, 50 I.U./mL penicillin, 50 μg/mL streptomycin, 10 mM HEPES, 20 μg/mL G418 Sulfate). On the day of the assay, GPR119 stable HEK293 cells are lifted from the tissue culture plate and 1000 cells/well are incubated along with various concentrations of test compounds for 20 min at 37° C. Detection Buffer (50 mM HEPES, 10 mM calcium chloride, 0.35% Triton X-100, 1 mg/mL BSA) containing cAMP-specific antibody is then added to all wells and allowed to equilibrate in the dark for 10 minutes at room temperature. Upon equilibration, Detection Buffer containing europium-labeled cAMP tracer complex is added to all wells and allowed to react for 1 hour at room temperature. After 1 hour, bound europium-labeled cAMP tracer is measured using a Perkin Elmer Envision plate reader. The quantity of cAMP generated in each well is derived from a standard curve. EC50 is determined using nonlinear regression analysis of the cAMP values over a range of agonist concentration (12 points spanning the range from 30 μM to 100 pM).

Row | Structure (SMILES) | pEC50
1 | CCc1cnc(N2CCC(N(C(=O)c3cn(-c4ccc(C#N)cn4)cn3)C3CC3)CC2)nc1 [Example 104] | 7.21
2 | Cc1ncnn1-c1ncc(C(=O)N(C2CC2)[C@@H]2CCN(c3ncc(Cl)cn3)C[C@@H]2F)cn1 (single isomer, unassigned) [Example 100] | 6.87
3 | Cc1nccn1-c1ccc(C(=O)N(C2CC2)[C@@H]2CCN(c3ncc(Cl)cn3)C[C@@H]2F)cn1 (single isomer, unassigned) [Example 97] | 7.49
4 | O=C(c1cnc(-n2cncn2)cn1)N(C1CC1)[C@@H]1CCN(c2ccc(C(F)(F)F)cn2)C[C@@H]1F (single isomer, unassigned) [Example 78] | 8.05
5 | Cc1ncn(-c2cnc(C(=O)N(C3CC3)C3CCN(c4nc(C(C)C)no4)CC3)cn2)n1 [Example 56] | 6.33
6 | Cc1ncn(-c2cnc(C(=O)N(C3CC3)C3CCN(c4ncc(Cl)cn4)CC3)cn2)n1 [Example 68] | 6.90
7 | Cc1ncnn1-c1ccc(C(=O)N(C2CC2)C2CCN(c3nc(C(C)C)no3)CC2)cn1 [Example 52] | 6.64
8 | Cc1nccn1-c1cnc(C(=O)N(C2CC2)[C@@H]2CCN(c3ccc(C(F)(F)F)cn3)C[C@@H]2F)cn1 (single isomer, unassigned) [Example 83] | 7.92
9 | O=C(c1cnc(-n2cncn2)nc1)N(C1CC1)[C@@H]1CCN(c2ncc(C(F)(F)F)cn2)C[C@@H]1F (single isomer, unassigned) [Example 102] | 7.30
10 | O=C(c1cnc(-n2cncn2)cn1)N(C1CC1)[C@H]1CCN(c2ccc(C(F)(F)F)cn2)C[C@H]1F (single isomer, unassigned) [Example 71] | 7.03
11 | Cc1ncnn1-c1ccc(C(=O)N(C2CC2)C2CCN(c3ncc(Cl)cn3)CC2)cn1 [Example 64] | 6.60
12 | Cc1nccn1-c1ccc(C(=O)N(C2CC2)C2CCN(c3ncc(C(F)(F)F)cc3F)CC2)cn1 [Example 43] | 7.14
13 | CCc1cnc(N2CCC(N(C(=O)c3cnc(-n4ccnc4C)cn3)C3CC3)CC2)nc1 [Example 59] | 5.91
14 | CCc1cnc(N2CC[C@@H](N(C(=O)c3cnc(-n4cncn4)cn3)C3CC3)[C@@H](F)C2)nc1 (single isomer, unassigned) [Example 86] | 8.30
15 | O=C(c1cnc(-n2cncn2)nc1)N(C1CC1)C1CCN(c2ncc(Cl)cn2)CC1 [Example 66] | 7.14
16 | CCc1cnc(N2CC[C@@H](N(C(=O)c3cn(-c4ccc(S(C)(=O)=O)cc4F)c(C)n3)C3CC3)[C@@H](F)C2)nc1 (single isomer, unassigned) [Example 111] | 5.79
17 | CCc1cnc(N2CC[C@@H](N(C(=O)c3cn(-c4ccc(S(C)(=O)=O)cc4F)cn3)C3CC3)[C@@H](F)C2)nc1 (single isomer, unassigned) [Example 108] | 7.09
18 | Cc1ncnn1-c1ccc(C(=O)N(C2CC2)C2CCN(c3ncc(C(F)(F)F)cc3F)CC2)cn1 [Example 44] | 7.66
19 | CCc1cnc(N2CC[C@@H](N(C(=O)c3cn(-c4ccc(C#N)cc4F)c(C)n3)C3CC3)[C@@H](F)C2)nc1 (single isomer, unassigned) [Example 112] | 6.10
20 | Cc1nnnn1-c1ccc(C(=O)N(C2CC2)[C@@H]2CCN(c3ncc(Cl)cn3)C[C@@H]2F)cn1 (single isomer, unassigned) [Example 94] | 8.10
21 | Cc1nccn1-c1ncc(C(=O)N(C2CC2)C2CCN(c3nc(C(C)C)no3)CC2)cn1 [Example 55] | 6.29
22 | CCc1cnc(N2CC[C@@H](N(C(=O)c3cnc(-n4cncn4)nc3)C3CC3)[C@@H](F)C2)nc1 (single isomer, unassigned) [Example 91] | 6.69
23 | Cc1ncnn1-c1ncc(C(=O)N(C2CC2)C2CCN(c3ncc(C(F)(F)F)cc3F)CC2)cn1 [Example 50] | 6.83
24 | Cc1nccn1-c1ccc(C(=O)N(C2CC2)[C@H]2CCN(c3ccc(C(F)(F)F)cn3)C[C@H]2F)cn1 (single isomer, unassigned) [Example 73] | 6.41
25 | CCc1cnc(N2CC[C@@H](N(C(=O)c3cn(-c4ccc(C#N)cn4)c(C)n3)C3CC3)[C@@H](F)C2)nc1 (single isomer, unassigned) [Example 110] | 6.44
26 | Cc1nccn1-c1ccc(C(=O)N(C2CC2)C2CCN(c3ncc(Cl)cn3)CC2)cn1 [Example 63] | 6.41

Row | Structure (SMILES) | pEC50
27 | CCc1cnc(N2CCC(N(C(=O)c3cnc(-n4cncn4)nc3)C3CC3)CC2)nc1 [Example 61] | 7.01
28 | Cc1nccn1-c1ccc(C(=O)N(C2CC2)[C@@H]2CCN(c3ccc(C(F)(F)F)cn3)C[C@@H]2F)cn1 (single isomer, unassigned) [Example 81] | 7.47
29 | Cc1ncn(-c2cnc(C(=O)N(C3CC3)[C@@H]3CCN(c4ccc(C(F)(F)F)cn4)C[C@@H]3F)cn2)n1 (single isomer, unassigned) [Example 82] | 7.46
30 | O=C(c1cnc(-n2cncn2)nc1)N(C1CC1)C1CCN(c2ncc(C(F)(F)F)cc2F)CC1 [Example 47] | 6.90
31 | Cc1nnnn1-c1ccc(C(=O)N(C2CC2)C2CCN(c3nc(C(C)C)no3)CC2)cn1 [Example 57] | 6.64
32 | CCc1cnc(N2CCC(N(C(=O)c3cnc(-n4cncn4)cn3)C3CC3)CC2)nc1 [Example 60] | 7.54
33 | Cc1nccn1-c1ncc(C(=O)N(C2CC2)C2CCN(c3ncc(Cl)cn3)CC2)cn1 [Example 67] | 7.35
34 | Cc1nccn1-c1cnc(C(=O)N(C2CC2)[C@H]2CCN(c3ccc(C(F)(F)F)cn3)C[C@H]2F)cn1 (single isomer, unassigned) [Example 75] | 6.47
35 | CCc1cnc(N2CC[C@@H](N(C(=O)c3cn(-c4ccc(C#N)cn4)cn3)C3CC3)[C@@H](F)C2)nc1 (single isomer, unassigned) [Example 107] | 6.73
36 | Cc1ncn(-c2cnc(C(=O)N(C3CC3)[C@H]3CCN(c4ccc(C(F)(F)F)cn4)C[C@H]3F)cn2)n1 (single isomer, unassigned) [Example 74] | 6.39
37 | Cc1nccn1-c1cnc(C(=O)N(C2CC2)C2CCN(c3nc(C(C)C)no3)CC2)cn1 [Example 53] | 6.09
38 | Cc1nccn1-c1cnc(C(=O)N(C2CC2)[C@@H]2CCN(c3ncc(Cl)cn3)C[C@@H]2F)cn1 (single isomer, unassigned) [Example 99] | 7.74
39 | CCc1cnc(N2CCC(N(C(=O)c3cnc(-n4cnc(C)n4)cn3)C3CC3)CC2)nc1 [Example 62] | 6.73
40 | CC(C)c1noc(N2CCC(N(C(=O)c3cnc(-n4cncn4)cn3)C3CC3)CC2)n1 [Example 54] | 6.09
41 | CCc1cnc(N2CC[C@@H](N(C(=O)c3ccc(-n4ccnc4C)nc3)C3CC3)[C@@H](F)C2)nc1 (single isomer, unassigned) [Example 88] | 7.54
42 | CCc1cnc(N2CC[C@@H](N(C(=O)c3cnc(-n4ccnc4C)cn3)C3CC3)[C@@H](F)C2)nc1 (single isomer, unassigned) [Example 90] | 7.36
43 | Cc1nccn1-c1ccc(C(=O)N(C2CC2)C2CCN(c3nc(C(C)C)no3)CC2)cn1 [Example 51] | 6.23
44 | O=C(c1cnc(-n2cncn2)nc1)N(C1CC1)[C@@H]1CCN(c2ccc(C(F)(F)F)cn2)C[C@@H]1F (single isomer, unassigned) [Example 80] | 6.95
45 | CCc1cnc(N2CC[C@@H](N(C(=O)c3cnc(-n4ccnc4C)nc3)C3CC3)[C@@H](F)C2)nc1 (single isomer, unassigned) [Example 87] | 8.40
46 | Cc1ncnn1-c1ncc(C(=O)N(C2CC2)[C@@H]2CCN(c3ccc(C(F)(F)F)cn3)C[C@@H]2F)cn1 (single isomer, unassigned) [Example 103] | 6.41
47 | CCc1cnc(N2CCC(N(C(=O)c3cn(-c4ccc(C#N)cc4F)cn3)C3CC3)CC2)nc1 [Example 106] | 7.24
48 | CCc1cnc(N2CCC(N(C(=O)c3ccc(-n4ccnc4C)nc3)C3CC3)CC2)nc1 [Example 58] | 6.26
49 | CCc1cnc(N2CC[C@@H](N(C(=O)c3cnc(-n4cncn4)cn3)C3CC3)[C@@H](F)C2)nc1 (single isomer, unassigned) [Example 92] | 6.22
50 | CCc1cnc(N2CC[C@@H](N(C(=O)c3cnc(-n4cnc(C)n4)cn3)C3CC3)[C@@H](F)C2)nc1 (single isomer, unassigned) [Example 89] | 7.74
51 | CCc1cnc(N2CCC(N(C(=O)c3cn(-c4ccc(C#N)cc4F)cn3)C3CC3)C(F)C2)nc1 (single isomer, unassigned) [Example 109] | 7.28
52 | Cc1nccn1-c1ncc(C(=O)N(C2CC2)[C@@H]2CCN(c3ncc(Cl)cn3)C[C@@H]2F)cn1 (single isomer, unassigned) [Example 95] | 8.15
